In series [1] the test system is ERK phosphorylation level in DLD-1 cells. Briefly: Inhibition of ERK phosphorylation level in DLD-1 cells (intracellular western blot). It is filed as cell-based. Particulars: Homo sapiens. How it is done: Intracellular western blot quantitative analysis was used to detect the inhibitory level of compounds on ERK phosphorylation in DLD-1 cells.
DLD-1 cells (ATCC, CCL-221) were seeded in a T75 culture flask at 2.5 × 10^6 cells/flask, and cultured in a RPMI 1640 medium containing 10% FBS for 2 days. On day 3, the cells were seeded on a 384-well plate, and cultured overnight at 37°C, 5% CO2. After overnight culture, the plate was added with serially diluted compounds (the final content of DMSO was 0.5%), the negative group was added with DMSO, and incubated in a 37°C, 5% CO2 incubator.
The cells were fixed, washed once with PBS, treated to disrupt membranes, and blocked at room temperature for 1 h. The blocking solution was removed. The plate was added with primary antibody (CST, Cat. No. #4370S), and incubated overnight at 4°C. The plate was washed 3 times with PBST (PBS solution added with 0.05% Tween-20), and soaked for 2 min each time. The plate was added with secondary antibody (LI-COR, Cat. No. 926-32211), and incubated at room temperature in the dark. The plate was washed 3 times with PBST, and soaked for 2 min each time. The plate was centrifuged at 1000 rpm for 1 min, scanned on a two-color infrared laser imaging system (Odyssey® CLX) to read the signal. Relative signal = 800-channel signal values/700-channel signal values. […]
IC50 values were calculated using Graphpad 5 software.
For orientation: A western blot detects proteins with antibodies after separation by electrophoresis.

Series [2] can be described thus: Human liver microsome stability test. It is filed as in vitro ADME. The settings on record: human liver microsomes. The protocol:
The human liver microsome stability test was performed by incubating the compound and human liver microsomes in vitro. First, the compound to be tested was prepared into a 10 mM stock solution in DMSO solvent, and then the compound was diluted to 0.5 mM with acetonitrile. Human liver microsomes (Corning) were diluted with PBS into a microsome/buffer solution, and the solution was used to dilute 0.5 mM compound into a working solution, in which the concentration of the compound was 1.5 µM, and the concentration of human liver microsomes was 0.75 mg/mL. A deep-well plate was taken, 30 µL of the working solution was added per well, and then 15 µL of pre-heated 6 mM NADPH solution was added thereto to initiate a reaction, and the reaction was incubated at 37°C. At 0, 5, 15, 30, and 45 min of the incubation, 135 µL of acetonitrile was added to the corresponding wells to terminate the reaction. After the reaction was terminated with acetonitrile at the last time point of 45 min, the deep-well plate was vortexed for 10 min (600 rpm/min), and then centrifuged for 15 min. After centrifugation, the supernatant was collected, and added with purified water in a ratio of 1:1 to perform LC-MS/MS detection. A ratio of a peak area of compound to a peak area of internal standard at each time point was obtained, and the peak area ratios of the compound at 5, 15, 30, and 45 min were compared with the peak area ratio at 0 min to calculate the remaining percentage of the compound at each time point. T1/2 was calculated by using GraphPad 5 software.

As usually defined, the IC50 is the concentration needed to halve the response being measured. Read a high IC50 as weaker potency. Broadly, the half-life is the time needed for the level to fall by half in the phase considered. A higher half-life goes with slow loss.

In turn, `Cc1nc(N[C@H](C)c2cccc(S(F)(F)(F)(F)F)c2)c2cn(C3(CF)CC3)c(=O)cc2n1` [Compound of formula I, (R)-6-(1-(fluoromethyl)cyclopropyl)-2-methyl-4-((1-(3-(pentafluorosulfanyl)phenyl)ethyl)amino)pyrido[4,3-d]pyrimidin-7(6H)-one] showed an IC50 in series [1] of 56 nM. The half-life at 1 µM in series [2] is 765 min. The “Remaining percentage (%) of compound after incubation for 30 min” value in series [2] (incubation for 30 min, 37°C) was determined as 98.7%.

The record behind these values is patent EP4570800A1, “CRYSTAL FORM OF PYRIDINOPYRIMIDINONE COMPOUND, ACID SALT THEREOF, CRYSTAL FORM OF ACID SALT THEREOF, AND USE” (Wuhan Humanwell Innovative Drug Research and Development …, priority 2022, dated 2024).
